Experimental data from EP4707280A1, “1,4-CINEOLE DERIVATIVE AND INTERMEDIATE THEREOF, HERBICIDE CONTAINING SAID DERIVATIVE AS ACTIVE INGREDIENT, METHOD FOR USING HERBICIDE, AND METHOD FOR PREPARING AGROCHEMICAL COMPOSITION” (HOKKO CHEMICAL INDUSTRY CO., LTD., priority 2023, dated 2024).

Tests used:
Type in all cases: in vivo
[1] = system: Echinochloa crus-galli; assay: Test Example 8: herbicidal effect test by stem and leaf treatment in upland field (low dose); details: Echinochloa crus-galli; 7.5 g per 10 ares; sprayed seven days after sowing, upland soil; 14 days after application; read-out: weed inhibition rate
[2] = system: Digitaria ciliaris; assay: as above; details: Digitaria ciliaris; 7.5 g per 10 ares; sprayed seven days after sowing, upland soil; 14 days after application; read-out: weed inhibition rate
[3] = system: Echinochloa crus-galli var. formosensis; assay: Test Example 2: herbicidal effect test by application during growth period of paddy rice; details: Echinochloa crus-galli; 120 g per 10 ares; applied seven days after sowing, flooded pots; 14 days after application; read-out: weed inhibition rate
How it was run: (§1)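 Herbicidal effect was scored 14 days after treatment, in duplicate per concentration. Weeds sown 0–1 cm deep in puddled, fertilized paddy soil under about 3 cm of standing water received a water-diluted emulsifiable concentrate by dropper 7 days post-sowing, at 120 g a.i. per 10 ares.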

[4] = system: Scirpus juncoides; assay: as above; details: Schoenoplectiella juncoides; 120 g per 10 ares; applied seven days after sowing, flooded pots; 14 days after application; read-out: weed inhibition rate
How it was run: as §1

[5] = system: Monochoria vaginalis; assay: as above; details: Pontederia vaginalis; 120 g per 10 ares; applied seven days after sowing, flooded pots; 14 days after application; read-out: weed inhibition rate
How it was run: as §1

[6] = system: Monochoria vaginalis; assay: Test Example 1: herbicidal effect test by soil application in paddy rice; details: Pontederia vaginalis, soil, 336 h; 120 g active ingredient per 10 ares; applied immediately after sowing, flooded pots; 14 days after application; read-out: weed inhibition rate
How it was run: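 Inhibition rate (%) read 14 days after treatment, duplicate pots. Water-diluted emulsifiable concentrate was applied by dropper at 120 g active ingredient/10 ares right after sowing. Seeds (30 per species, 0–1 cm deep) went into puddled paddy soil kept flooded at about 3 cm in a greenhouse.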

[7] = system: Echinochloa crus-galli; assay: Test Example 7: herbicidal effect test by soil application in upland field (low dose); details: Echinochloa crus-galli, 7.5 g per 10 ares, sprayed one day after sowing, 14 days after application, read-out: weed inhibition rate
How it was run: (§2)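 Pre-emergence soil treatment: 7.5 g a.i. per 10 a applied as water-diluted emulsifiable concentrate (100 L/10 a) to soil surface one day post-sowing in alluvial loam. Inhibition (%) assessed at 14 days, duplicate pots per concentration.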

[8] = system: Digitaria ciliaris; assay: as above; details: Digitaria ciliaris, 7.5 g per 10 ares, sprayed one day after sowing, 14 days after application, read-out: weed inhibition rate
How it was run: as §2

[9] = system: Echinochloa crus-galli var. formosensis; assay: Test Example 6: herbicidal effect test by application during growth period of paddy rice (low dose); details: Echinochloa crus-galli; 7.5 g per 10 ares; applied seven days after sowing, flooded pots; 14 days after application; read-out: weed inhibition rate
How it was run: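 Emulsifiable concentrate, water-diluted, dropped onto flooded paddy pots 7 days post-sowing at 7.5 g active ingredient/10 a. Greenhouse-grown weeds; percent inhibition scored at day 14 after treatment.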

[10] = system: Echinochloa crus-galli; assay: Test Example 4: herbicidal effect test by stem and leaf treatment in upland field; details: Echinochloa crus-galli; 120 g per 10 ares; sprayed seven days after sowing, upland soil; 14 days after application; read-out: weed inhibition rate
[11] = system: Echinochloa crus-galli var. formosensis; assay: Test Example 5: herbicidal effect test by soil application in paddy rice (low dose); details: Echinochloa crus-galli, soil, 336 h; 7.5 g per 10 ares; applied immediately after sowing, flooded pots; 14 days after application; read-out: weed inhibition rate
How it was run: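 Dose of 7.5 g a.i. per 10 ares, applied by dropper as diluted emulsifiable concentrate to flooded (~3 cm) paddy pots immediately after sowing seeds at 0–1 cm. Kept in a glass greenhouse; duplicate pots rated at 14 days post-application.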

CC(C)[C@]12C[C@@H](OCc3ccccc3Br)[C@](C)(CC1=O)O2 [2-13, (1R,4S,5R)-5-((2-bromobenzyl)oxy)-1-isopropyl-4-methyl-7-oxabicyclo[2.2.1]heptan-2-one]
≥ 80%: inhibition at 75 g/ha [1] | inhibition at 75 g/ha [2] | inhibition at 1200 g/ha [3] | inhibition at 1200 g/ha [4] | inhibition at 1200 g/ha [5] | pest or weed control at 1200 g/ha [6] | inhibition at 75 g/ha [7] | inhibition at 75 g/ha [8] | inhibition at 75 g/ha [9] | inhibition at 1200 g/ha [10] | inhibition at 75 g/ha [11]

CC(C)[C@]12C[C@@H](OCc3c(F)cccc3F)[C@](C)(CC1=O)O2 [2-20, (1R,4S,5R)-5-((2,6-difluorobenzyl)oxy)-1-isopropyl-4-methyl-7-oxabicyclo[2.2.1]heptan-2-one]
≥ 80%: inhibition at 75 g/ha [1] | inhibition at 75 g/ha [2] | inhibition at 1200 g/ha [3] | inhibition at 1200 g/ha [4] | inhibition at 1200 g/ha [5] | pest or weed control at 1200 g/ha [6] | inhibition at 75 g/ha [7] | inhibition at 75 g/ha [8] | inhibition at 75 g/ha [9] | inhibition at 1200 g/ha [10] | inhibition at 75 g/ha [11]

CC(C)[C@]12C[C@@H](OCc3c(F)cccc3Cl)[C@](C)(CC1=O)O2 [2-28, (1R,4S,5R)-5-((2-chloro-6-fluorobenzyl)oxy)-1-isopropyl-4-methyl-7-oxabicyclo[2.2.1]heptan-2-one]
≥ 80%: inhibition at 75 g/ha [1] | inhibition at 75 g/ha [2] | inhibition at 1200 g/ha [3] | inhibition at 1200 g/ha [4] | inhibition at 1200 g/ha [5] | pest or weed control at 1200 g/ha [6] | inhibition at 75 g/ha [7] | inhibition at 75 g/ha [8] | inhibition at 75 g/ha [9] | inhibition at 1200 g/ha [10] | inhibition at 75 g/ha [11]

C=C1C[C@]2(C)O[C@@]1(C(C)C)C[C@H]2OCc1ccccc1C [2-72, (1R,4S,5R)-1-isopropyl-4-methyl-5-((2-methylbenzyl)oxy)-2-methylene-7-oxabicyclo[2.2.1]heptane]
≥ 80%: inhibition at 75 g/ha [1] | inhibition at 75 g/ha [2] | inhibition at 1200 g/ha [3] | inhibition at 1200 g/ha [4] | inhibition at 1200 g/ha [5] | pest or weed control at 1200 g/ha [6] | inhibition at 75 g/ha [7] | inhibition at 75 g/ha [8] | inhibition at 75 g/ha [9] | inhibition at 1200 g/ha [10] | inhibition at 75 g/ha [11]

C=C1C[C@]2(C)O[C@@]1(C(C)C)C[C@H]2OCc1ccccc1F [2-88, (1R,4S,5R)-5-((2-fluorobenzyl)oxy)-1-isopropyl-4-methyl-2-methylene-7-oxabicyclo[2.2.1]heptane]
≥ 80%: inhibition at 75 g/ha [1] | inhibition at 75 g/ha [2] | inhibition at 1200 g/ha [3] | inhibition at 1200 g/ha [4] | inhibition at 1200 g/ha [5] | pest or weed control at 1200 g/ha [6] | inhibition at 75 g/ha [7] | inhibition at 75 g/ha [8] | inhibition at 75 g/ha [9] | inhibition at 1200 g/ha [10] | inhibition at 75 g/ha [11]

Cc1ccccc1CO[C@@H]1C[C@]2(C(C)C)O[C@@]1(C)C/C2=N\O [2-191, (1R,4S,5R,E)-1-isopropyl-4-methyl-5-((2-methylbenzyl)oxy)-7-oxabicyclo[2.2.1]heptan-2-one oxime]
≥ 80%: inhibition at 75 g/ha [1] | inhibition at 75 g/ha [2] | inhibition at 1200 g/ha [3] | inhibition at 1200 g/ha [4] | inhibition at 1200 g/ha [5] | pest or weed control at 1200 g/ha [6] | inhibition at 75 g/ha [7] | inhibition at 75 g/ha [8] | inhibition at 75 g/ha [9] | inhibition at 1200 g/ha [10] | inhibition at 75 g/ha [11]

CC(C)[C@]12C[C@@H](OCc3ccccc3F)[C@](C)(C/C1=N\O)O2 [2-197, (1R,4S,5R,E)-5-((2-fluorobenzyl)oxy)-1-isopropyl-4-methyl-7-oxabicyclo[2.2.1]heptan-2-one oxime]
≥ 80%: inhibition at 75 g/ha [1] | inhibition at 75 g/ha [2] | inhibition at 1200 g/ha [3] | inhibition at 1200 g/ha [4] | inhibition at 1200 g/ha [5] | pest or weed control at 1200 g/ha [6] | inhibition at 75 g/ha [7] | inhibition at 75 g/ha [8] | inhibition at 75 g/ha [9] | inhibition at 1200 g/ha [10] | inhibition at 75 g/ha [11]

Cc1cccc(F)c1CO[C@@H]1C[C@]2(C(C)C)O[C@@]1(C)CC2=O [2-353, (1R,4S,5R)-5-((2-fluoro-6-methylbenzyl)oxy)-1-isopropyl-4-methyl-7-oxabicyclo[2.2.1]heptan-2-one]
≥ 80%: inhibition at 75 g/ha [1] | inhibition at 75 g/ha [2] | inhibition at 1200 g/ha [3] | inhibition at 1200 g/ha [4] | inhibition at 1200 g/ha [5] | pest or weed control at 1200 g/ha [6] | inhibition at 75 g/ha [7] | inhibition at 75 g/ha [8] | inhibition at 75 g/ha [9] | inhibition at 1200 g/ha [10] | inhibition at 75 g/ha [11]

CC(C)[C@]12C[C@@H](OCc3c(F)cccc3Br)[C@](C)(CC1=O)O2 [2-355, (1R,4S,5R)-5-((2-bromo-6-fluorobenzyl)oxy)-1-isopropyl-4-methyl-7-oxabicyclo[2.2.1]heptan-2-one]
≥ 80%: inhibition at 75 g/ha [1] | inhibition at 75 g/ha [2] | inhibition at 1200 g/ha [3] | inhibition at 1200 g/ha [4] | inhibition at 1200 g/ha [5] | pest or weed control at 1200 g/ha [6] | inhibition at 75 g/ha [7] | inhibition at 75 g/ha [8] | inhibition at 75 g/ha [9] | inhibition at 1200 g/ha [10] | inhibition at 75 g/ha [11]

CC(C)[C@]12C=C[C@](C)(O1)[C@H](OCc1ccccc1)C2 [3-1, (1R,4S,5R)-4-methyl-5-phenylmethoxy-1-isopropyl-7-oxabicyclo[2.2.1]hept-2-ene]
≥ 80%: inhibition at 75 g/ha [1] | inhibition at 75 g/ha [2] | inhibition at 1200 g/ha [3] | inhibition at 1200 g/ha [4] | inhibition at 1200 g/ha [5] | pest or weed control at 1200 g/ha [6] | inhibition at 75 g/ha [7] | inhibition at 75 g/ha [8] | inhibition at 75 g/ha [9] | inhibition at 1200 g/ha [10] | inhibition at 75 g/ha [11]
